# Tests used:
# [1] = molecular target: T1, ERG isolated Ets domain (ERGu, 289-378) (Homo sapiens, UniProt P11308); assay: Fluorescence polarization DNA binding assay, uninhibited ERG; settings: FP DNA binding, NA = no activity up to 2000 μM, >number = estimate from fit with lower bound
# T1 construct: made in house
# T1 sequence (P11308 289-378 isoform P11308-1): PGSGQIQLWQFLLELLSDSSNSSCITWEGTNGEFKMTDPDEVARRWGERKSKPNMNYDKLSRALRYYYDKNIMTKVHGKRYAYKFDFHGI
# Excerpt: (§1) The constructs of ERG which retain full auto-inhibition were previously delineated (17). Fluorescence polarization-based assays for DNA binding were then developed, which were used for screening. In addition to the auto-inhibited form of ERG, it was important to also have an assay using its Ets domain, i.e., the uninhibited form of the protein, to compare action of compounds. Compounds which are active against the auto-inhibited form of the protein but have little or no effect on the uninhibited form were sought, indicating their binding is mediated by the non-conserved auto-inhibitory modules rather than the highly conserved Ets domain. […] Fragment screening is an alternative approach that has gained a great deal of favor in the pharma industry recently that employs relatively small molecules (22). […] The auto-inhibited construct was screened first with a dose dependent screen of actives with ERGi using fluorescein- and Texas Red-DNA and then the positive hits were counter-screened with the ERG Ets domain, specifically a screen of actives with ERGu, the latter screen serving to remove compounds which bind to the conserved Ets domain or to DNA, which left 26 compounds which inhibit the auto-inhibited construct of ERG binding to DNA but not the uninhibited ERG (the Ets domain) binding to DNA. ERGi is the auto-inhibited construct of ERG (272-388) and ERGu is the uninhibited DNA binding domain construct of ERG (289-378). […] The IC50 of the validated hits was 0.6-7 mM. […] Importantly, chemical shift changes upon compound addition are observed in the ^15N-^1H HSQC NMR spectra of ERG for amino acids located in the auto-inhibitory modules of ERG, indicating they do interact with these regions of the protein. It is critical to also develop assays for other ETS family members to assess the specificity of action of the compounds identified in the screen, so auto-inhibited constructs were expressed and assays were developed for five other ETS family members and assays for additional members of the family were also developed.
# (§2) Using a standard medicinal chemistry approach, further optimization of the fragment hits were pursued. The specificity of parent fragments and their optimized derivatives with 5 additional Ets proteins which are representatives of 5 additional sub-families, were evaluated, as shown in Table 2. […] NA in Table 2 represents no activity up to the 2000 μM maximum concentration. >number in Table 2 represents some activity at highest concentrations so data fit with a lower bound to obtain an estimate of IC50.
# [2] = molecular target: T2, ERG auto-inhibited construct (ERGi, 272-388) (Homo sapiens, UniProt P11308); assay: ERGi-DNA fluorescence polarization assay; assay type: binding; settings: optimized fragment analogs, values in text; read-out: IC50
# T2 construct: made in house
# T2 sequence (P11308 272-388 isoform P11308-1): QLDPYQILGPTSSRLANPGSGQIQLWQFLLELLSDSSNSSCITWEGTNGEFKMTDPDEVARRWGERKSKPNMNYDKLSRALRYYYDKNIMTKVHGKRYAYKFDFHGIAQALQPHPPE
# Excerpt: as §1, §2
# [3] = molecular target: T3, ELF3 (Homo sapiens, UniProt P78545); assay: Fluorescence polarization DNA binding assay, auto-inhibited ELF3; settings: auto-inhibited construct; NA = no activity up to 2000 μM; >number = estimate from fit with lower bound
# T3 sequence (P78545 1-371): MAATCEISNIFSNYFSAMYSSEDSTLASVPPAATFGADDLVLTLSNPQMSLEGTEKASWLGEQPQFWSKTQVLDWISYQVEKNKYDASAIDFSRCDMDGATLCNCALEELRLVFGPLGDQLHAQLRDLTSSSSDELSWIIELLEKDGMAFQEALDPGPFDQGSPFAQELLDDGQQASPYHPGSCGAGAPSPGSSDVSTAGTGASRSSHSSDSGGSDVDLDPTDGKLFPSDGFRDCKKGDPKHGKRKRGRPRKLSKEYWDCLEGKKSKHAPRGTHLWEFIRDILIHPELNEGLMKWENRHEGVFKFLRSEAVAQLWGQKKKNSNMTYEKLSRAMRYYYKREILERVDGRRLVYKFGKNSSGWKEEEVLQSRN
# Excerpt: as §1, §2
# [4] = molecular target: T4, ELK1 (Homo sapiens, UniProt P19419); assay: Fluorescence polarization DNA binding assay, auto-inhibited ELK1; settings: auto-inhibited construct; NA = no activity up to 2000 μM; >number = estimate from fit with lower bound
# T4 sequence (P19419 1-428): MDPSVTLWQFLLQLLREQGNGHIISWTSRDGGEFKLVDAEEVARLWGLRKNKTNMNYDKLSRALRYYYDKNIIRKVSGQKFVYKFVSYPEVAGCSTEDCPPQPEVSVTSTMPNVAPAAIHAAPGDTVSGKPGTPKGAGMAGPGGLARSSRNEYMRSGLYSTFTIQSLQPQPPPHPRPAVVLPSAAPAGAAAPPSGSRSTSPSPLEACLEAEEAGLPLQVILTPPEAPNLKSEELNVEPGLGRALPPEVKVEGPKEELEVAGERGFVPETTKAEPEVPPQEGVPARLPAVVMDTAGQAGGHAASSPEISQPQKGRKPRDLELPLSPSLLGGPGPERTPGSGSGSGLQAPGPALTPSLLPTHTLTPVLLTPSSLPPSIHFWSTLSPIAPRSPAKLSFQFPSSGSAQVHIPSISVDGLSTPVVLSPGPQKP
# Excerpt: as §1, §2
# [5] = molecular target: Spi1 (PU.1) (Homo sapiens, UniProt P17947); assay: Fluorescence polarization DNA binding assay, auto-inhibited PU.1; settings: auto-inhibited construct; NA = no activity up to 2000 μM; >number = estimate from fit with lower bound
# Excerpt: as §1, §2
# [6] = molecular target: T5, ETV6 (TEL) (Homo sapiens, UniProt P41212); assay: Fluorescence polarization DNA binding assay, auto-inhibited ETV6; settings: auto-inhibited construct; NA = no activity up to 2000 μM; >number = estimate from fit with lower bound
# T5 sequence (P41212 1-452): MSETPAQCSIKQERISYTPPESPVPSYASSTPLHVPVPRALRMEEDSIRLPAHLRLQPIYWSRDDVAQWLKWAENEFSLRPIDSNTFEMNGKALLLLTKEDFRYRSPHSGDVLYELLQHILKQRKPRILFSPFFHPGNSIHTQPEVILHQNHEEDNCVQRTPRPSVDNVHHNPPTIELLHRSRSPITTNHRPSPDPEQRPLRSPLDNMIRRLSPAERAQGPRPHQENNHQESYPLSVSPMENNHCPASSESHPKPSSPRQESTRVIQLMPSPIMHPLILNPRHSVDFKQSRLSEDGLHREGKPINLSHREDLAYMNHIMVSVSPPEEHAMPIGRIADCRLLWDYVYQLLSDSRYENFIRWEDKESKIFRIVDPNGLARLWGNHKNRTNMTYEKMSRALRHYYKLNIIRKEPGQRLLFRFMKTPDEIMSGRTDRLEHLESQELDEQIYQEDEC
# Excerpt: as §1, §2
# [7] = molecular target: T6, Ets1 (Homo sapiens, UniProt P14921); assay: Fluorescence polarization DNA binding assay, auto-inhibited Ets-1; settings: auto-inhibited construct; NA = no activity up to 2000 μM; >number = estimate from fit with lower bound
# T6 sequence (P14921 1-441): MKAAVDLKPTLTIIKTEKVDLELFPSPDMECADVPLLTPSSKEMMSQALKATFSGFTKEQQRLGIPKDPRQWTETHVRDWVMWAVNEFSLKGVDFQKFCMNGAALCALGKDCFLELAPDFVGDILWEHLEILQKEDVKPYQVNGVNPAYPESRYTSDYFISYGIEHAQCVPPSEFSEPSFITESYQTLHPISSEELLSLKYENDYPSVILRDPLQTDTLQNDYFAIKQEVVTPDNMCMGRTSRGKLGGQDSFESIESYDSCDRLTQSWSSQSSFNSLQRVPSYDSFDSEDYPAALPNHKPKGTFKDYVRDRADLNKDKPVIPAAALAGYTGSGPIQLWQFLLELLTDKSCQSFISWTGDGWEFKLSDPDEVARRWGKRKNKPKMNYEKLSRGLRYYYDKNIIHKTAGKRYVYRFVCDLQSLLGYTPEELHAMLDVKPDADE
# Excerpt: as §1, §2
# [8] = system: Ewing's sarcoma cell lines; assay: Growth of Ewing's sarcoma cell lines; assay type: cell-based; settings: read-out: IC50 values for inhibition of the growth
# Method: (§3) The compounds of formula (I), in particular those in Table 3, were tested for their effects on the growth of Ewing sarcoma cell lines as well as a rhabdomyosarcoma cell line as a control. The inhibitors are active against Ewing sarcoma cell lines with sub μM EC50 values but not active with the rhabdomyosarcoma cell line. The relative activity of the compounds in the biochemical assay was also observed in the cellular data, consistent with an on-target mechanism of action. […] The inhibitor decreases expression of the two genes activated by EWS-FL11 and activates the expression of the gene repressed by EWS-FLI1, consistent with an on-target mechanism of action. The inhibitors have also been evaluated across a panel of leukemia cell lines and see selective activity on cell lines with an ERG and/or FLI1 dependence.
# Evaluation of ERG inhibitors on Ewing's sarcoma cell lines. FIGS. 16A-16D show the results of treatment of Ewing's sarcoma cell lines with the bivalent ERG inhibitors. […] Ewing's sarcoma has EWS-FLI1 and EWS-ERG fusions (FLI1 is highly homologous to ERG). ERG inhibitors show submicromolar EC50 values for Ewing's sarcoma cell lines. […] Importantly, for the unrelated rhabdomyosarcoma cell line included in this panel, there was minimal inhibition of growth.
# [9] = system: leukemia cell lines; assay: Panel of leukemia cell lines; assay type: cell-based; settings: Jurkat, RS4-11, Kasumi, K562, THP-1
# Method: as §3
# ERG inhibitor effects on leukemia cell lines. FIG. 17A-17D and FIG. 18A-18C show the effects of the ERG inhibitor on several leukemia cell lines. […] ERG inhibitors show efficacy against T-ALL cell line (Jurkat) and selective activity against specific leukemia cell lines. […] As expected from previous literature indicating a strong dependence on ERG for T-ALL, the T-ALL cell line Jurkat is quite sensitive to the ERG inhibitors (sub μM IC50 values). […]
# [10] = molecular target: T7, ERG (Homo sapiens, UniProt P11308); assay: Time-dependent ERG-DNA fluorescence polarization assay; settings: time-dependent inhibition of ERG-DNA binding, irreversible inhibitor
# T7 sequence (P11308 1-462 isoform P11308-1): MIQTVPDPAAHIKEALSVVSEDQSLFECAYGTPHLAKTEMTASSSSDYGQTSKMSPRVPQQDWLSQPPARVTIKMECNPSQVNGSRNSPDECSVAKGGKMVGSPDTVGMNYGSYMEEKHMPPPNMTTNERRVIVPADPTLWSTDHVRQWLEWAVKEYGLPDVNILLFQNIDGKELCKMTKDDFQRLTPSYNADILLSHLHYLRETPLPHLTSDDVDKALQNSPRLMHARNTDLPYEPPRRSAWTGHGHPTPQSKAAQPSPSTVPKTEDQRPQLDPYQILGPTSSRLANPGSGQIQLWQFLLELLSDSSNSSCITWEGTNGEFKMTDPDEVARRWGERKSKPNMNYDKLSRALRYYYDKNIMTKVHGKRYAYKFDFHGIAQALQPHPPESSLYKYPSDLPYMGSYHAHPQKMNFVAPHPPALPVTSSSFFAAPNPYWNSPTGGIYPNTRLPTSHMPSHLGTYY
# Method: To assay such compounds time-dependent inhibition of ERG-DNA binding was recorded using a fluorescence polarization (FP) based assay and the rates were fitted to derive KI and kinact for the compounds which were ranked based on the kinact/KI values as has been described previously.
# These compounds were assayed using the time-dependent ERG-DNA assay described above. Importantly, time-dependent inhibition was observed, a hallmark of irreversible inhibitors. […] ERG inhibitors show time-dependent inhibition characteristics of irreversible inhibitors based on the following formula: […]
# Kobs values were determined from the initial slope for the first 15 minutes. NMR chemical shift perturbation data was consistent with 2 binding sites on ERG. FIG. 14A and FIG. 14B show selected changes in chemical shift for resonances in the ^15N-^1H HSQC NMR spectrum of ERGi upon addition of KK-36-25.
IC50 [1] [mM],IC50 [2] [µM],IC50 [3] [mM],IC50 [4] [mM],IC50 [5] [mM],IC50 [6] [mM],IC50 [7] [mM],IC50 [8] [nM],Ki [10] [µM],Compound,selectivity across leukemia cell lines [9]
> 3,88,> 2,> 4.75,> 2,> 2,> 3.6,,,COc1cc(OCC(=O)Nc2cccc(O)c2)ccc1C [KK-22-93],
,,,,,,,≤ 1000,,Cc1ccc(-c2nc3cc(Cl)c(NC(=O)CCOCCn4cc(COCCOCCOCCOc5ccc(S(=O)(=O)C6CCN(C(=O)/C=C/c7cc8ccccc8o7)C6)cc5)nn4)cc3o2)cc1 (centres unmarked) [KK-36-84],
,,,,,,,≤ 1000,6.3,Cc1ccc(-c2nc3cc(Cl)c(NC(=O)CCOCCn4cc(COCCOCCOc5ccc(S(=O)(=O)C6CCN(C(=O)/C=C/c7cc8ccccc8o7)C6)cc5)nn4)cc3o2)cc1 (centres unmarked) [KK-36-25],selective for Leukemia cell lines dependent on ERG

# — patent US20250361227A1, “INHIBITORS OF FLI1 AND ERG” (UNIVERSITY OF VIRGINIA PATENT FOUNDATION, priority 2022, published 2025)
